Like-named read-outs stand apart in the source and are kept apart here.
Test system: β-adrenergic receptors
Settings: Desipramine 5 mg/kg, i.p.; for [^3 H]-DHA Specifically Bound: mean ± SEM, six animals per group
Procedure: The number of β-adrenergic receptors in rat cerebral cortical membranes was measured after a 4 day and 14 day course of one of the following treatments:
a) saline control (intraperitoneal injection--i.p.)
c) fluoxetine (10 mg/kg/day, i.p.) or (10 mg/kg bid, i.p.)
Male Sprague-Dawley rats (175-200 g) were assigned randomly to one of the four treatment groups above and were treated as indicated for either 4 or 14 days. The animals were sacrificed 24 hours after their last treatment and cerebral cortical membranes were isolated. These membranes were assayed for β-adrenergic receptor number by the method of Bylund and Snyder [Mol. Pharmacol. 12, 568 (1976)] by measuring the amount of [3H]dihydro-alprenolol ([^3 H]-DHA) bound.

SMILES: CNCCC(Oc1ccc(C(F)(F)F)cc1)c1ccccc1 (stereo not shown) [Fluoxetine, fluoxetine]
- [^3 H]-DHA Specifically Bound, % Control (A) 14 days, Fluoxetine 10 mg/kg): 91 % Control
- [^3 H]-DHA Specifically Bound (A) 14 days, Fluoxetine 10 mg/kg, saline 41.8 ± 1.4, * p < 0.05 vs saline, + P < 0.05 vs Desipramine): 37.9 ± 1.8 fmol/mg protein
- [^3 H]-DHA Specifically Bound, % Control (B) 4 days, Fluoxetine 10 mg/kg bid): 95 % Control
- [^3 H]-DHA Specifically Bound (B) 4 days, Fluoxetine 10 mg/kg bid, saline 54.6 ± 3.1, * p < 0.05 vs saline): 51.8 ± 1.7 fmol/mg protein

— US5149714A, “Antidepressants” (Merrell Dow Pharmaceuticals Inc., priority 1990, dated 1992)
